Experimental data reported in ChEMBL document CHEMBL2384976, “Synthesis and cytotoxic evaluation of novel pyrimidine deoxyapiothionucleosides” (Bioorg Med Chem Lett, 2013).

Columns and labels:
HT-29 [1] = assay: Induction of cytotoxic response in human HT-29 cells after 48 hrs by MTT assay; assay type: functional
MDA-MB-231 [2] = assay: Induction of cytotoxic response in human MDA-MB-231 cells after 48 hrs by MTT assay; assay type: functional
MRC5 = assay: Cytotoxicity against human MRC5 cells after 48 hrs by MTT assay; assay type: cell-based
HT-29 [3] = assay: Cytotoxicity against human HT-29 cells after 48 hrs by MTT assay; assay type: functional, cell-based
MDA-MB-231 [4] = assay: Cytotoxicity against human MDA-MB-231 cells after 48 hrs by MTT assay; assay type: functional, cell-based
MCF7 = assay: Cytotoxicity against human MCF7 cells after 48 hrs by MTT assay; assay type: functional, cell-based
A549 = assay: Cytotoxicity against human A549 cells after 48 hrs by MTT assay; assay type: functional, cell-based
HeLa = assay: Cytotoxicity against human HeLa cells after 48 hrs by MTT assay; assay type: functional, cell-based

SMILES	Activity (HT-29 [1])	Activity (MDA-MB-231 [2])	IC50 (MRC5; Homo sapiens, MRC5, 48 h)	IC50 (HT-29 [3]; Homo sapiens, HT-29, 48 h)	IC50 (MDA-MB-231 [4]; Homo sapiens, MDA-MB-231, 48 h)	IC50 (MCF7; Homo sapiens, MCF7, 48 h)	IC50 (A549; Homo sapiens, A549, 48 h)	IC50 (HeLa; Homo sapiens, HeLa, 48 h)	IC50 (MRC5; mrc5)	IC50 (HT-29 [3]; ht-29)	IC50 (MDA-MB-231 [4]; mda-mb-231)	IC50 (MCF7; mcf7)	IC50 (A549; a549)	IC50 (HeLa; hela)
Cc1cn([C@@H]2SC[C@@](C)(O)[C@H]2O)c(=O)[nH]c1=O	62%	57%	269 µM	5 µM	3 µM	323 µM	41 µM	214 µM	–	–	–	–	–	–
C[C@@]1(O)CS[C@@H](n2ccc(=O)[nH]c2=O)[C@@H]1O	–	–	630 µM	8 µM	19 µM	193 µM	4270 µM	214 µM	–	–	–	–	–	–
C[C@@]1(O)CS[C@@H](n2ccc(N)nc2=O)[C@@H]1O [listing 1 of 2 here]	–	–	–	–	–	–	–	–	4340 µM	2270 µM	58 µM	1980 µM	1320 µM	106 µM
Cc1cn([C@H]2SC[C@](C)(O)[C@@H]2O)c(=O)[nH]c1=O	–	–	290 µM	640 µM	52 µM	172 µM	30 µM	6870 µM	–	–	–	–	–	–
C[C@@]1(O)CS[C@@H](n2ccc(N)nc2=O)[C@@H]1O [listing 2 of 2 here]	–	–	–	–	–	–	–	–	147 µM	6400 µM	10 µM	139 µM	9 µM	17 µM
C[C@]1(O)CS[C@H](n2ccc(N)nc2=O)[C@H]1O	–	–	221 µM	5990 µM	11 µM	13 µM	223 µM	12 µM	–	–	–	–	–	–
C[C@]1(O)CS[C@H](n2ccc(=O)[nH]c2=O)[C@H]1O	–	–	1000 µM	269 µM	14 µM	100 µM	30 µM	4320 µM	–	–	–	–	–	–
